In patent publication US20240390315A1, “NUTRITIONAL COMPOSITIONS” (MITOCHOLINE Ltd, priority 2021, published 2024):

Key:
[1] = biological target: neuronal insulin receptor (Homo sapiens, UniProt P06213); conditions: cited from earlier work
isolated mitochondria = conditions: rat liver mitochondria incubated 15 min at 37° C. with test substrate, LC-MS/MS; compared with choline chloride
Description: Livers from male Wistar rats were homogenized using a Teflon®-glass Potter-Elvehjem homogenizer in the isolation medium containing 0.25 M sucrose, 0.02 M Tris-HCl, 0.001 M EDTA, pH 7.2. The homogenates prepared in this way were centrifuged at 600 g for 10 min at 4° C. to precipitate nuclei and cell debris. Then the supernatant was separated from the sediment and subjected to centrifugation at 8500 g for 10 min at 4° C. to precipitate mitochondria.

[2] = plasma, healthy adult males, single oral beverage supplying 550 mg choline, after overnight fasting; ranking among the three supplements
Description: Study: a randomized cross-over study on 12 adult male subjects.
Subjects: 12 healthy adult male subjects (3 placebo and 9 test supplement (each supplement group-3 subjects)) who are between 30 and 60 years of age.
Duration: One-day oral administration of a choline supplement was followed by 1 week of wash-out before the start of administration of the next (different) choline supplement.
Subjects took each of the three supplements in randomized sequence with interspersed wash-out periods of 1 week. […] The beverages were consumed in the morning after overnight fasting. Blood (2.7 ml EDTA) was taken before intake (−0.1 h) and at 0.5, 1, 1.5, 2, 3, 4, 5, and 6 h after intake. Collected blood was immediately centrifuged at 1000×g at room temperature for 10 min. Plasma was separated and stored at −80° C. until analysis. […] Equipment for analysis: TSQ Quantum Discovery MAX tandem mass spectrometer, a Finnigan Surveyor Autosampler Plus, and a Finnigan Surveyor MS Pump Plus (Thermo Fisher Scientific, Dreieich, Germany), and choline, betaine were separated on a Polaris Si-A® column at 40° C. and the components were analyzed.

Chain of neuronal insulin receptor (P06213 28-1382): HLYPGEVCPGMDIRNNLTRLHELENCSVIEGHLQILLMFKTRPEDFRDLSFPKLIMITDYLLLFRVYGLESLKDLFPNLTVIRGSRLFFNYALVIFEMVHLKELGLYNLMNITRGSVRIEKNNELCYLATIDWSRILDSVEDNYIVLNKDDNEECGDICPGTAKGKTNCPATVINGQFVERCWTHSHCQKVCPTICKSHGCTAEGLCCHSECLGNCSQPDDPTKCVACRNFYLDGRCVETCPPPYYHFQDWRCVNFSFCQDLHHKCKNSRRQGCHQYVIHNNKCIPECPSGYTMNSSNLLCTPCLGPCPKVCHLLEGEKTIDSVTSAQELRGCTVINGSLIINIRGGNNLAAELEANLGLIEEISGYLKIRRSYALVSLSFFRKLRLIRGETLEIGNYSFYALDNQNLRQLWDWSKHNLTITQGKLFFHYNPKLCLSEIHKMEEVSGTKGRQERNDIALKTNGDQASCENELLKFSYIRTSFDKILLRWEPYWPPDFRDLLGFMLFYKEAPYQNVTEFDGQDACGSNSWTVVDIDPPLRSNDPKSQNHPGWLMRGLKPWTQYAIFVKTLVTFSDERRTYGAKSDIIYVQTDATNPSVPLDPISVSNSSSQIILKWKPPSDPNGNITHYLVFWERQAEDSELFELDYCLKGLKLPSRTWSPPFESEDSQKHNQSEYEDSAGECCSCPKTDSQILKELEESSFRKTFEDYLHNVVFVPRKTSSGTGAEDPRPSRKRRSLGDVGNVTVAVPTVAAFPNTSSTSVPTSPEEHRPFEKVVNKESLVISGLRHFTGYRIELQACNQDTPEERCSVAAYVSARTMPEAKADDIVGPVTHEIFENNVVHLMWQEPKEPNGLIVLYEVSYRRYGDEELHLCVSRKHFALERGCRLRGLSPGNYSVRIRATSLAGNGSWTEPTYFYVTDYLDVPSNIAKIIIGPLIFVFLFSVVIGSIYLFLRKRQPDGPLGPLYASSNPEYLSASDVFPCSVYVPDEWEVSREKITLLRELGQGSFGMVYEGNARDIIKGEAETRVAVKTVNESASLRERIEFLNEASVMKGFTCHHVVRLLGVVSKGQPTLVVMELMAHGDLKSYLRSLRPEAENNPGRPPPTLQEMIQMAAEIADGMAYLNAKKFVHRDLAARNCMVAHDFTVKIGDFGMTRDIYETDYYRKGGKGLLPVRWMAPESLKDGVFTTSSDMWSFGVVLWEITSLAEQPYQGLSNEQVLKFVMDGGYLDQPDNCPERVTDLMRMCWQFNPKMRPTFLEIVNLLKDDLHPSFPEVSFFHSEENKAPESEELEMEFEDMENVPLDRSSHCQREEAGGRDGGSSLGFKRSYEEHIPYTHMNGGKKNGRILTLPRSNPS

| Compound | sensitization of the neuronal insulin receptor [1] | betaine yield (concentration of betaine in the incubation medium) (isolated mitochondria) | AUC (0-6 h) of betaine concentrations [2] |
| --- | --- | --- | --- |
| dicholine succinate [DiSu] | potent sensitizer | higher betaine yields | – |
| C[N+](C)(C)CCO.[Cl-] [choline chloride] | – | – | lowest |
| C[N+](C)(C)CCO.O=C([O-])C(O)C(O)C(=O)O (stereo not shown) [choline bitartrate] | – | – | dicholine succinate>choline bitartrate>choline chloride |
